From the supplement of paper PMC10307832

Assays:
Assay in all cases: relative viability (nuclei count vs DMSO), 5 days (fraction); higher = more cells survive
[1] = test system: NCI-H522
Procedure, shortened: (§1)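 Lung cancer cell lines were seeded in 1536-well plates and dosed by pin tool the next day, with either a single drug or a fixed anchor-drug dose combined with five library-drug doses (not always all listed) spaced in √10 steps. Five days later, one step fixed the cells and stained their nuclei (final 0.05% Triton X-100, 1% formaldehyde, 1 ug/ml Hoechst), and nuclei were counted on 4× images. Relative viability is the nuclei count in treated wells divided by the count in vehicle wells, and each value is the median of duplicate plates.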

[2] = test system: EKVX
Procedure, shortened: as §1

[3] = test system: NCI-H2342
Procedure, shortened: as §1

[4] = test system: H3255
Procedure, shortened: as §1

[5] = test system: NCI-H2347
Procedure, shortened: as §1

[6] = test system: NCI-H1944
Procedure, shortened: as §1

[7] = test system: LC-2-ad
Procedure, shortened: as §1

[8] = test system: COR-L 105
Procedure, shortened: as §1

[9] = test system: PC-3 [JPC-3]
Procedure, shortened: as §1

[10] = test system: LXF-289
Procedure, shortened: as §1

[11] = test system: NCI-H1395
Procedure, shortened: as §1

[12] = test system: NCI-H1915
Procedure, shortened: as §1

[13] = test system: SK-MES-1
Procedure, shortened: as §1

[14] = test system: NCI-H2228
Procedure, shortened: as §1

[15] = test system: LK-2
Procedure, shortened: as §1

[16] = test system: NCI-H2085
Procedure, shortened: as §1

[17] = test system: EMC-BAC-2
Procedure, shortened: as §1

[18] = test system: NCI-H1651
Procedure, shortened: as §1

[19] = test system: CAL-12T
Procedure, shortened: as §1

[20] = test system: NCI-H1793
Procedure, shortened: as §1

[21] = test system: NCI-H2087
Procedure, shortened: as §1

[22] = test system: SK-LU-1
Procedure, shortened: as §1

[23] = test system: NCI-H1437
Procedure, shortened: as §1

[24] = test system: NCI-H661
Procedure, shortened: as §1

[25] = test system: NCI-H1755
Procedure, shortened: as §1

CCCCCCCCCCCC1=C(O)C(=O)C=C(O)C1=O [Embelin] + O=C(CCCCCCC(=O)Nc1ccccc1)NO [Vorinostat] (partner 1 µM)
relative viability ([1]; first compound 0.08 µM): 0.876
relative viability ([1]; first compound 0.8 µM): 0.906
relative viability ([1]; first compound 2.53 µM): 0.763
relative viability ([1]; first compound 8 µM): 0.856
relative viability ([2]; first compound 0.08 µM): 0.744
relative viability ([2]; first compound 0.8 µM): 0.962
relative viability ([2]; first compound 2.53 µM): 0.832
relative viability ([2]; first compound 8 µM): 0.754
relative viability ([3]; first compound 0.08 µM): 0.766
relative viability ([3]; first compound 0.8 µM): 0.828
relative viability ([3]; first compound 2.53 µM): 0.887
relative viability ([3]; first compound 8 µM): 0.73
relative viability ([4]; first compound 0.08 µM): 0.873
relative viability ([4]; first compound 0.8 µM): 0.834
relative viability ([4]; first compound 2.53 µM): 0.711
relative viability ([4]; first compound 8 µM): 0.948
relative viability ([5]; first compound 0.08 µM): 0.557
relative viability ([5]; first compound 0.8 µM): 0.628
relative viability ([5]; first compound 2.53 µM): 0.513
relative viability ([5]; first compound 8 µM): 0.656
relative viability ([6]; first compound 0.08 µM): 0.577
relative viability ([6]; first compound 0.8 µM): 0.643
relative viability ([6]; first compound 2.53 µM): 0.656
relative viability ([6]; first compound 8 µM): 0.589
relative viability ([7]; first compound 0.08 µM): 0.759
relative viability ([7]; first compound 0.8 µM): 0.695
relative viability ([7]; first compound 2.53 µM): 0.716
relative viability ([7]; first compound 8 µM): 0.774
relative viability ([8]; first compound 0.08 µM): 0.867
relative viability ([8]; first compound 0.8 µM): 0.906
relative viability ([8]; first compound 2.53 µM): 0.904
relative viability ([8]; first compound 8 µM): 0.787
relative viability ([9]; first compound 0.08 µM): 0.614
relative viability ([9]; first compound 0.8 µM): 0.95
relative viability ([9]; first compound 2.53 µM): 0.68
relative viability ([9]; first compound 8 µM): 0.604
relative viability ([10]; first compound 0.08 µM): 0.803
relative viability ([10]; first compound 0.8 µM): 0.742
relative viability ([10]; first compound 2.53 µM): 0.715
relative viability ([10]; first compound 8 µM): 0.809
relative viability ([11]; first compound 0.08 µM): 0.615
relative viability ([11]; first compound 0.8 µM): 1
relative viability ([11]; first compound 2.53 µM): 0.48
relative viability ([11]; first compound 8 µM): 0.521
relative viability ([12]; first compound 0.08 µM): 0.563
relative viability ([12]; first compound 0.8 µM): 0.544
relative viability ([12]; first compound 2.53 µM): 0.521
relative viability ([12]; first compound 8 µM): 0.473
relative viability ([13]; first compound 0.08 µM): 1.1
relative viability ([13]; first compound 0.8 µM): 1.2
relative viability ([13]; first compound 2.53 µM): 1.1
relative viability ([13]; first compound 8 µM): 0.898
relative viability ([14]; first compound 0.08 µM): 0.407
relative viability ([14]; first compound 0.8 µM): 0.819
relative viability ([14]; first compound 2.53 µM): 0.36
relative viability ([14]; first compound 8 µM): 0.85
relative viability ([15]; first compound 0.08 µM): 0.308
relative viability ([15]; first compound 0.8 µM): 0.28
relative viability ([15]; first compound 2.53 µM): 0.261
relative viability ([15]; first compound 8 µM): 0.307
relative viability ([16]; first compound 0.08 µM): 0.742
relative viability ([16]; first compound 0.8 µM): 0.932
relative viability ([16]; first compound 2.53 µM): 0.807
relative viability ([16]; first compound 8 µM): 0.755
relative viability ([17]; first compound 0.08 µM): 0.344
relative viability ([17]; first compound 0.8 µM): 0.561
relative viability ([17]; first compound 2.53 µM): 0.257
relative viability ([17]; first compound 8 µM): 0.269
relative viability ([18]; first compound 0.08 µM): 0.576
relative viability ([18]; first compound 0.8 µM): 0.629
relative viability ([18]; first compound 2.53 µM): 0.575
relative viability ([18]; first compound 8 µM): 0.59
relative viability ([19]; first compound 0.08 µM): 0.848
relative viability ([19]; first compound 0.8 µM): 0.779
relative viability ([19]; first compound 2.53 µM): 0.677
relative viability ([19]; first compound 8 µM): 0.697
relative viability ([20]; first compound 0.08 µM): 0.728
relative viability ([20]; first compound 0.8 µM): 0.842
relative viability ([20]; first compound 2.53 µM): 0.754
relative viability ([20]; first compound 8 µM): 0.439
relative viability ([21]; first compound 0.08 µM): 0.659
relative viability ([21]; first compound 0.8 µM): 0.714
relative viability ([21]; first compound 2.53 µM): 0.759
relative viability ([21]; first compound 8 µM): 0.744
relative viability ([22]; first compound 0.08 µM): 0.892
relative viability ([22]; first compound 0.8 µM): 0.954
relative viability ([22]; first compound 2.53 µM): 0.75
relative viability ([22]; first compound 8 µM): 0.518
relative viability ([23]; first compound 0.08 µM): 0.83
relative viability ([23]; first compound 0.8 µM): 0.943
relative viability ([23]; first compound 2.53 µM): 0.853
relative viability ([23]; first compound 8 µM): 0.392
relative viability ([24]; first compound 0.08 µM): 0.787
relative viability ([24]; first compound 0.8 µM): 0.826
relative viability ([24]; first compound 2.53 µM): 0.788
relative viability ([24]; first compound 8 µM): 0.745
relative viability ([25]; first compound 0.08 µM): 0.723
relative viability ([25]; first compound 0.8 µM): 0.813
relative viability ([25]; first compound 2.53 µM): 0.809
relative viability ([25]; first compound 8 µM): 0.574
